Measurements reported in patent US20230406859A1, “METHOTREXATE ANALOGS AND METHODS OF USE” (The United States of America, as represented by the …, priority 2020, published 2023).
Like-named read-outs stand apart in the source and are kept apart here.

Assays:
Format in all cases: cell-based
[1] = molecular target: T1, human DHFR-HiBiT fusion protein (Homo sapiens, UniProt P00374); assay: DHFR-HiBiT assay (high-throughput DHFR abundance) in HBL1 cells; settings: HBL1, 24 h, read-out: efficacy (%)
T1 construct: expressed in transfected cells; host or cells: HBL1 cells retrovirally infected with pBMN-Ires-Lyt-2 carrying DHFR-HiBiT
T1 sequence (P00374 with tags, fused parts or gaps): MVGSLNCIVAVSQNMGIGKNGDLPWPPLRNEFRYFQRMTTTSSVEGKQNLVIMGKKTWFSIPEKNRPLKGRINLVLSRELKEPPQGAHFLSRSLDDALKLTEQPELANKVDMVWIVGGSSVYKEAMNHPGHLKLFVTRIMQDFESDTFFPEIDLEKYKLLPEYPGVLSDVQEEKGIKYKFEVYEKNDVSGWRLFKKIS
Text: The human DHFR-HiBiT construct was synthetized (Bio Basic) and cloned into the retroviral vector pBMN-Ires-Lyt-2 (provided by G. Nolan, Stanford University, Stanford, CA) which expresses the coding region of mouse CD8a (Lyt-2) using the restriction sites BamHI/XhoI. All constructs were sequenced to validate authenticity. Infected cells were positively selected based on murine CD8a expression using magnetic beads (Miltenyi Biotech).
Cell culture: Human embryonic kidney HEK293T cells were maintained in DMEM (Gibco) supplemented with 10% fetal bovine serum (Hyclone), 2 mmol/L 1-glutamine, HEPES (Gibco) and 100 U/mL penicillin/streptomycin (Invitrogen). The lymphoma cell line HBL1 were maintained in RPMI (Life Technology) supplemented with 5% fetal bovine serum (Hyclone), 2 mmol/L L-glutamine, HEPES (Gibco) and 100 U/mL penicillin/streptomycin (Invitrogen).
Transfection and retroviral infections: Transfections were performed using Lipofectamine 2000 (Invitrogen) according to the manufacturer's protocol. For retroviral infections, viruses were produced in HEK293T cells and used to infect HBL1 cell line. […] Supernatants containing the retrovirus were collected and filtered at 48- and 72-hours post-transfection. HBL1 cells were centrifuged and then resuspended with the retroviral supernatant with 8 μg/ml of polybrene. The cells were spin-infected twice on consecutive days at 2,500 rpm, at RT, for 90 minutes.
Lytic HiBiT Detection: Cells were plated in solid white 1536-well tissue culture plates (Greiner), at the concentration of 2000 cells/well. After treatment, an equal volume of Nano-Glo HiBiT Lytic Reagent (Promega) containing the substrate furimazine and Large BiT (LgBiT) was added to the cells according to the manufacturer's protocol. Cells were incubated for 10 min at room temperature, and luminescence was measured using a Perkin Elmer ViewLux microplate imager with 30 seconds of exposure time.

[2] = system: HBL1 cell line; assay: CellTiter-Glo cell viability (cytotox), HBL1 cell line, 72 hours; settings: HBL1 cell line, CellTiter-Glo; unit inferred
Protocol: (§1) CellTiter-Glo viability assays: Five μL of cells (2500 cells) from the 12-well plate culture were plated into white 1536-well plates (Greiner, Monroe, NC, 789173-F) in 6 replicates. CellTiter-Glo Luminescent Cell Viability Assay (CTG) (Promega, G7572), 2.5 μL/well reagent was added with a BioRAPTR FRD (Beckman Coulter, Sykesville, MD), plates were incubated in the dark at ambient temperature for 10 min, and luminescence measured with a ViewLux 1430 Ultra HTS (Perkin Elmer, Waltham, MA).

[3] = molecular target: T2, DHFR (Homo sapiens, UniProt P00374); settings: HBL1 cells, Western blot
T2 construct: Western blot detection of DHFR levels after treatment of HBL1 cells for 16 h; endogenous in cells; host or cells: HBL1 lymphoma cell line
T2 sequence (P00374 1-187): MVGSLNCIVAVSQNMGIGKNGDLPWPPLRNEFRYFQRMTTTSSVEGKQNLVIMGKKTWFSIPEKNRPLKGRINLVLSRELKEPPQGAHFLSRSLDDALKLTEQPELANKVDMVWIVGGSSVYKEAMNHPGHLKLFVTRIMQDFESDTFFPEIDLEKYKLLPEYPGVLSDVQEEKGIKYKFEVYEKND
Text: Human embryonic kidney HEK293T cells and immortalized fibroblasts were maintained in DMEM (Gibco) supplemented with 10% fetal bovine serum (Hyclone), 2 mmol/L L-glutamine, Hepes (Gibco), and 100 U/mL penicillin/streptomycin (Invitrogen). The lymphoma cell line HBL1 was maintained in RPMI (Life Technology) supplemented with 5% fetal bovine serum (Hyclone), 2 mmol/L 1-glutamine, Hepes (Gibco), and 100 U/mL penicillin/streptomycin (Invitrogen).
Western blotting: Cells at confluence from 12-well plate treatments were washed with PBS and lysed in 75 μL/well NP40 lysis buffer (Cell Signaling), subjected to agitation and centrifugation. Approximately 100 μg of total protein was used per analysis. […] Blots were first incubated with 1:2000 dilution of anti-human DHFR antibody (Abcam, ab124814, host rabbit) for 16 h at 4° C. with shaking, washed 3× with TBS-T and incubated with 1:2000 dilution of anti-human β-actin primary antibody (Cell Signaling, host mouse) for 1 h at ambient temperature with shaking. Blots were then washed 3× with TBS-T and incubated with 1:5000 HRP secondary antibody (Novex, anti-Rabbit IgG raised in Goat, 1 mg/ml) for 1 h at ambient temperature, then washed with 3×TBS-T and developed with Pierce ECL Dura reagent for 5 min. Immunoreactive bands were imaged on a ChemiDoc Imaging System (Bio-Rad) with 20 s chemiluminescence exposure. The molecular weight marker ladder was imaged with colorimetric auto-exposure, and both images merged.

[4] = system: HBL1 cells; assay: CellTiter-Glo assay of cellular ATP levels in HBL1 cells (16 h)
Protocol: Cell Culture Methods: Cells (HBL1, immortalized fibroblasts from a healthy donor, or 293T) were seeded at the numbers indicated in a 12-well plate in 500 ul. […] Human embryonic kidney HEK293T cells and immortalized fibroblasts were maintained in DMEM (Gibco) supplemented with 10% fetal bovine serum (Hyclone), 2 mmol/L L-glutamine, Hepes (Gibco), and 100 U/mL penicillin/streptomycin (Invitrogen). The lymphoma cell line HBL1 was maintained in RPMI (Life Technology) supplemented with 5% fetal bovine serum (Hyclone), 2 mmol/L 1-glutamine, Hepes (Gibco), and 100 U/mL penicillin/streptomycin (Invitrogen). Cells were cultured in incubators maintained at 37° C., with 5% CO2 and 85% humidity.
as §1, with “Cell-Titer-Glo viability” for “CellTiter-Glo viability”

[5] = molecular target: thymidylate synthase (TS) (Homo sapiens, UniProt P04818); assay: Western blot of thymidylate synthase levels in HBL1 cells; design: Western blot detection of folate-cofactor dependent enzyme levels after treatment of HBL1 cells; endogenous in cells; host or cells: HBL1 lymphoma cell line; settings: 1 μM, 16 h
thymidylate synthase (TS), sequence (P04818 2-313 limits assumed): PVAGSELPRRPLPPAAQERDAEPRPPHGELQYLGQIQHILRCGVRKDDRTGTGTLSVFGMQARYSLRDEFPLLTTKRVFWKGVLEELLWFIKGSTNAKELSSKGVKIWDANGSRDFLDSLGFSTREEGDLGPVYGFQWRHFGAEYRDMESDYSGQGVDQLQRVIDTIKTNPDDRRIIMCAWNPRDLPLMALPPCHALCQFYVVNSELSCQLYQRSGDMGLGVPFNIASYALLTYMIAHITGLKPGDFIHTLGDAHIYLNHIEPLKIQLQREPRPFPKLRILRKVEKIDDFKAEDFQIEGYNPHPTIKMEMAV

[6] = molecular target: T3, DHFR (Homo sapiens, UniProt P00374); assay: Western blot for DHFR in MTX-resistant HBL1 cell line; design: dose or concentration left out as unconfirmed
T3 construct: endogenous in cells
T3 sequence (P00374 2-187): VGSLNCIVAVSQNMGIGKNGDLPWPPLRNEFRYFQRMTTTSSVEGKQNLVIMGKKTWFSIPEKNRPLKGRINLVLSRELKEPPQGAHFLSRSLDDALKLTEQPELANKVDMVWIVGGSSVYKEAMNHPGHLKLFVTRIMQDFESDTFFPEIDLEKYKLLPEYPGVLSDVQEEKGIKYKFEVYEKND
Protocol: Protein expression analysis: Cells were collected and homogenized in lysis buffer (20 mM Tris-HCl (pH 7.5), 150 mM NaCl, 1 mM Na2EDTA, 1 mM EGTA 1% Triton, 2.5 mM sodium pyrophosphate) with freshly added protease inhibitors (50 mM HEPES, pH 7.6, 150 mM NaCl, 20 mM EDTA, 10 mM sodium orthovanadate (Vanadate, Na3VO4), 100 mM NaF, 2% Triton X-100, 10 μg/ml aprotinin, 10 μg/ml leupeptin, 0.5 mm phenylmethyl sulfonyl fluoride). […] The membrane was immunoblotted with rabbit polyclonal anti-DHFR or mouse anti-β-actin antibodies. The immune complexes were detected by horseradish peroxidase-conjugated secondary antibodies (Thermo Scientific) and developed using a ChemiDoc MP Imager (Bio-Rad). To detect HiBiT-tagged proteins, the membrane was rinsed for 1 h in TBST and then incubated in LgBiT/buffer solution overnight. Nano-Glo® Luciferase Assay Substrate furimazine was added and incubated 5 minutes, and the blot was exposed on the imager.

For `CN(Cc1cnc2nc(N)nc(N)c2n1)c1ccc(C(=O)N[C@@H](CCC(=O)NCCOCCOCCOCCNC(=O)COc2cccc3c2C(=O)N(C2CCC(=O)NC2=O)C3=O)C(=O)O)cc1` (stereo partly drawn) [NCGC00685965, (19S)-19-(4-(((2,4-diaminopteridin-6-yl)methyl)(methyl)amino)benzamido)-1-((2-(2,6-dioxopiperidin-3-yl)-1,3-dioxoisoindolin-4-yl)oxy)-2,16-dioxo-6,9,12-trioxa-3,15-diazaicosan-20-oic acid], the Dmax [1] was 64.2%, the IC50 [2] was 5.91 µM and the “effect on DHFR protein levels” value [3] was “remained capable of depleting cellular DHFR”. For the same molecule, the “effect on DHFR protein levels” value ([3]; listed as MTX-PROTAC 9) was “robust DHFR depletion”, the “effect on cellular ATP levels (acute cellular toxicity)” value [4] was “did not significantly alter ATP levels even up to 1 μM” and the “effect on TS protein level” value [5] was “slight increase in TS”. The “depletion of cellular DHFR” value [6] was “remained capable of depleting cellular DHFR”.
